Laboratory results reported in the NIST ThermoML archive (doi:10.1016/j.tca.2012.07.004).
Numbers after ± are expanded uncertainties.

Tests used:
[1] = 101 kPa, Liquid; for mass density: Vibrating tube method; for viscosity: Vibrating wire viscometry; for speed of sound: ultrasonic interferometer
[2] = xn = mol fraction of the nth substance listed; settings: 101 kPa, Liquid, x2 = 0; for mass density: Vibrating tube method; for viscosity: Vibrating wire viscometry; for speed of sound: ultrasonic interferometer

CN1CCCC1=O [N-methylpyrrolidone]
[1]
Settings | mass density [kg/m3] | speed of sound [m/s] | viscosity [mPa·s]
298.15 K | 1025.9 ± 0.32 | 1572 ± 20 | 1.66 ± 0.1
303.15 K | 1023.74 ± 0.32 | 1552 ± 20 | 1.49 ± 0.09
308.15 K | 1019.25 ± 0.32 | 1528 ± 20 | 1.39 ± 0.08
313.15 K | 1014.74 ± 0.31 | 1520 ± 20 | 1.31 ± 0.08

CN1CCCC1=O [N-methylpyrrolidone] + CC(=O)[O-].C[NH+](C)C
[2]
Settings | mass density [kg/m3] | speed of sound [m/s] | viscosity [mPa·s]
298.15 K | 1025.9 ± 0.32 | 1572 ± 20 | 1.66 ± 0.1
303.15 K | 1023.74 ± 0.32 | 1552 ± 20 | 1.49 ± 0.09
308.15 K | 1019.25 ± 0.32 | 1528 ± 20 | 1.39 ± 0.08
313.15 K | 1014.74 ± 0.31 | 1520 ± 20 | 1.31 ± 0.08

CN1CCCC1=O [N-methylpyrrolidone] + CCN(CC)CC.O=P(O)(O)O
[2]
Settings | mass density [kg/m3] | speed of sound [m/s] | viscosity [mPa·s]
298.15 K | 1025.9 ± 0.32 | 1572 ± 20 | 1.66 ± 0.1
303.15 K | 1023.74 ± 0.32 | 1552 ± 20 | 1.49 ± 0.09
308.15 K | 1019.25 ± 0.32 | 1528 ± 20 | 1.39 ± 0.08
313.15 K | 1014.74 ± 0.31 | 1520 ± 20 | 1.31 ± 0.08

CN1CCCC1=O [N-methylpyrrolidone] + C[NH+](C)C.O=P([O-])(O)O
[2]
Settings | mass density [kg/m3] | speed of sound [m/s] | viscosity [mPa·s]
298.15 K | 1025.9 ± 0.32 | 1572 ± 20 | 1.66 ± 0.1
303.15 K | 1023.74 ± 0.32 | 1552 ± 20 | 1.49 ± 0.09
308.15 K | 1019.25 ± 0.32 | 1528 ± 20 | 1.39 ± 0.08
313.15 K | 1014.74 ± 0.31 | 1520 ± 20 | 1.31 ± 0.08

CN1CCCC1=O [N-methylpyrrolidone] + C[NH+](C)C.O=S(=O)([O-])O
[2]
Settings | mass density [kg/m3] | speed of sound [m/s] | viscosity [mPa·s]
298.15 K | 1025.9 ± 0.3 | 1572 ± 20 | 1.66 ± 0.1
303.15 K | 1023.74 ± 0.32 | 1552 ± 20 | 1.49 ± 0.09
308.15 K | 1019.25 ± 0.32 | 1528 ± 20 | 1.39 ± 0.08
313.15 K | 1014.74 ± 0.31 | 1520 ± 20 | 1.31 ± 0.08

CCN(CC)CC.O=P(O)(O)O [triethylammonium dihydrogen phosphate]
[1]
Settings | mass density [kg/m3] | speed of sound [m/s] | viscosity [mPa·s]
298.15 K | 1125.7 ± 0.43 | 1794 ± 20 | 64.31 ± 3.9
303.15 K | 1124.68 ± 0.43 | 1769 ± 20 | 57.1 ± 3.4
308.15 K | 1123.71 ± 0.42 | 1757 ± 20 | 49.53 ± 3
313.15 K | 1122.37 ± 0.42 | 1730 ± 20 | 38.31 ± 2.3

CC(=O)[O-].C[NH+](C)C [trimethylammonium acetate]
[1]
Settings | mass density [kg/m3] | speed of sound [m/s] | viscosity [mPa·s]
298.15 K | 1053.85 ± 0.35 | 1544 ± 20 | 2.76 ± 0.17
303.15 K | 1049.87 ± 0.35 | 1514 ± 20 | 2.37 ± 0.14
308.15 K | 1045.81 ± 0.35 | 1508 ± 20 | 2.06 ± 0.12
313.15 K | 1041.7 ± 0.34 | 1490 ± 20 | 1.83 ± 0.11

C[NH+](C)C.O=P([O-])(O)O [trimethylammonium dihydrogen phosphate]
[1]
Settings | mass density [kg/m3] | speed of sound [m/s] | viscosity [mPa·s]
298.15 K | 1353.61 ± 0.69 | 1672 ± 20 | 7.64 ± 0.46
303.15 K | 1350.62 ± 0.68 | 1660 ± 20 | 6.46 ± 0.39
308.15 K | 1347.59 ± 0.68 | 1661 ± 20 | 5.61 ± 0.34
313.15 K | 1344.53 ± 0.68 | 1664 ± 20 | 5.07 ± 0.31

C[NH+](C)C.O=S(=O)([O-])O [trimethylammonium hydrogen sulfate]
[1]
Settings | mass density [kg/m3] | speed of sound [m/s] | viscosity [mPa·s]
298.15 K | 1467.58 ± 0.83 | 1564 ± 20 | 5.1 ± 0.31
303.15 K | 1463.56 ± 0.82 | 1560 ± 20 | 4.48 ± 0.27
308.15 K | 1463.5 ± 0.82 | 1556 ± 20 | 3.94 ± 0.24
313.15 K | 1455.63 ± 0.82 | 1552 ± 20 | 3.16 ± 0.19
